Data from patent US5646173A, “Tricyclic pyrrole derivatives useful as 5-HT selective agents” (Hoffmann-La Roche Inc., priority 1993, dated 1997).
Counter-ions that a name gives are not always drawn. Like-named read-outs stand apart in the source and are kept apart here.

Legend:
human-5HT1A receptors = biological target: T1, human-5HT1A receptors (Homo sapiens, UniProt P08908); test: [3H]-5-HT displacement on recombinant human 5HT1A receptors expressed in 3T3 cells of mice (Method II a); type: binding
T1 construct: expressed in transfected cells; host or cells: mouse 3T3 cells
T1 sequence (P08908 1-422): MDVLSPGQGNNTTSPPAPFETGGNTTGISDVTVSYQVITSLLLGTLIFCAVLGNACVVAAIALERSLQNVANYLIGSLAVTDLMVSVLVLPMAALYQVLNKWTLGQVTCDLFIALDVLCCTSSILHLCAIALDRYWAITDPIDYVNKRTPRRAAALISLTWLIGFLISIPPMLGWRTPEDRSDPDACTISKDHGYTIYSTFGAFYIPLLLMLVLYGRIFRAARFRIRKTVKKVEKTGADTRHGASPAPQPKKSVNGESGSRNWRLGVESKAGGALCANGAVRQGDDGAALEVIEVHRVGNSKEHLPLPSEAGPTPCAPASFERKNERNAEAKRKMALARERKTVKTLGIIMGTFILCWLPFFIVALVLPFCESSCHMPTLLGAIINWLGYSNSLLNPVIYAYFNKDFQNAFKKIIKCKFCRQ
Excerpt: [L] is the concentration of ligand and the KD value is the dissociation constant of the ligand.

5HT2A receptor [1] = biological target: T2, 5HT2A receptor (Homo sapiens, UniProt P28223); test: [3H]-DOB binding assay (Method II c)
T2 construct: expressed in transfected cells; host or cells: transfected mammalian cells (inferred from the cited method)
T2 sequence (P28223 whole entry): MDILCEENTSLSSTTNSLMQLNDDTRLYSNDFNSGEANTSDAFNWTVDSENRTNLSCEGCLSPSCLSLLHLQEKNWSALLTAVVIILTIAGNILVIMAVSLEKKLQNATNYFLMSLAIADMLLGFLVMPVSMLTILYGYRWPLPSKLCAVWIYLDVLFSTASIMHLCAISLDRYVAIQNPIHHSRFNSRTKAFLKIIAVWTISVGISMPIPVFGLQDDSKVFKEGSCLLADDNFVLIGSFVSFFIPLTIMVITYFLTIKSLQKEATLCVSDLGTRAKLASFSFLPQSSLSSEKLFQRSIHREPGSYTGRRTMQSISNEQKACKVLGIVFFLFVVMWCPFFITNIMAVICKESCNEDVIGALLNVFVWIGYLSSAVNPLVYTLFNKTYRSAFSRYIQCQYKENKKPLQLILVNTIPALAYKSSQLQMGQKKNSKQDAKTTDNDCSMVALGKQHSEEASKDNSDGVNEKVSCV
Excerpt: c) For the binding to the 5HT2A receptor in accordance with the [3H]-DOB binding assay according to the method of T. Branchek et al., Molecular Pharmacology 38, 604-609 (1990).
(§1) The pki values (pki =-log^10 Ki) of the test substances are given. […] [L] is the concentration of ligand and the KD value is the dissociation constant of the ligand.

5HT2C receptor [2] = biological target: T3, 5HT2C receptor (Rattus norvegicus, UniProt P08909); test: [3H]-5-HT binding assay (Method II b); parameters: expressed in transfected cells; host or cells: clonal 5-HT1C cell line
T3 sequence (P08909 33-460): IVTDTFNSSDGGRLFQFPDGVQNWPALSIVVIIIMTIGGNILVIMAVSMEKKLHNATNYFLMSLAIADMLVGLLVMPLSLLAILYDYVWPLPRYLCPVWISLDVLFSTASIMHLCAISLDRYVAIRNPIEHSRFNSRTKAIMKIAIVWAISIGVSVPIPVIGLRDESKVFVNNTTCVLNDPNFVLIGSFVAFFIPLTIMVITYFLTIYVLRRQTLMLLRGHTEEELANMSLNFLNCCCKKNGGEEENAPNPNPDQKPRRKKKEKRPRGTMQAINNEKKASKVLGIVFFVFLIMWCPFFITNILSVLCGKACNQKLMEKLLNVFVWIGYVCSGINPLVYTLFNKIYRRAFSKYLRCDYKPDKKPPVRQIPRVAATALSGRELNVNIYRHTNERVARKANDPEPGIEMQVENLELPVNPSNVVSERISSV
Excerpt: b) For the binding to the 5HT2C receptor in accordance with the [3H]-5-HT binding assay according to the method of S. J. Peroutka et al., Brain Research 584, 191-196 (1992).
as §1

5HT1A receptor = test: 3H-8-OH-DPAT binding assay (Method I a); details: read-out: IC50, test method a
Protocol: The binding of the compounds of formula I in accordance with the invention to serotonin receptors was determined in vitro by standard methods. The preparations were investigated in accordance with the assays given hereinafter: […]

5HT2C receptor [3] = biological target: T4, 5HT2C receptor (Sus scrofa, UniProt K7GSR7); test: 3H-mesulergine binding assay (Method I b)
T4 construct: from tissue
T4 sequence (K7GSR7 1-457): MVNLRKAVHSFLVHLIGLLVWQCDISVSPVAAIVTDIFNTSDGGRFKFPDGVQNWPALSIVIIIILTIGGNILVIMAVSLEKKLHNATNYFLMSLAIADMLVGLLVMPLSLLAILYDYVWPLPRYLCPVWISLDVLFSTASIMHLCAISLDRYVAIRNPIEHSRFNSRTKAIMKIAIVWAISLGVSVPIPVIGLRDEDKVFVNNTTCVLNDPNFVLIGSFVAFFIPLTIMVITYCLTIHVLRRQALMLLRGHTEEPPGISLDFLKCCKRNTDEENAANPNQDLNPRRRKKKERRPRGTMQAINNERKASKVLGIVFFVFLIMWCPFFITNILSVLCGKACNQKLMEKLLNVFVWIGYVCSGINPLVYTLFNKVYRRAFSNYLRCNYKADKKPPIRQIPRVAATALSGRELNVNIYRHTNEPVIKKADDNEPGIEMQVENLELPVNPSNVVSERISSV
Protocol: (§2) The binding of the compounds of formula I in accordance with the invention to serotonin receptors was determined in vitro by standard methods. The preparations were investigated in accordance with the assays given hereinafter:
b) For the binding to the 5HT2C receptor in accordance with the ^3 H-mesulergine binding assay according to the method of A. Pazos et al., Europ. J. Pharmacol. 106, 539-546 or. D. Hoyer, Receptor Research 8, 59-81 (1988).

5HT2A receptor [4] = biological target: T5, 5HT2A receptor (Rattus norvegicus, UniProt P14842); test: biochemical; type: binding
T5 construct: from tissue; host or cells: rat frontal cortex membranes (inferred from the cited method)
T5 sequence (P14842 whole entry): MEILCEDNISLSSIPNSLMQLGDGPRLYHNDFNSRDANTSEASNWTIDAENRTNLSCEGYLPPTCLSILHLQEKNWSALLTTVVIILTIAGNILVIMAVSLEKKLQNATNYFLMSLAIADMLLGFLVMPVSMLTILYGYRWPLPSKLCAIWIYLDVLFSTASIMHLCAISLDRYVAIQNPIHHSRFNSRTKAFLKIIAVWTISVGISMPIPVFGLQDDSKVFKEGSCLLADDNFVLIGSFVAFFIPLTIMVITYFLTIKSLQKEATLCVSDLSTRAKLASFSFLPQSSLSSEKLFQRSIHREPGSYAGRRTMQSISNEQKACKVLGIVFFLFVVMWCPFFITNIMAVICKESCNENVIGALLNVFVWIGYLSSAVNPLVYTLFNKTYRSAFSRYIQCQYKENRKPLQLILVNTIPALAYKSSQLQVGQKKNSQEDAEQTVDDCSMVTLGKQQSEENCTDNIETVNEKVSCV
Protocol: as §2
c) For the binding to the 5HT2A receptor in accordance with the ^3 H-ketanserine binding assay according to the method of J. E. Leysen, Molecular Pharmacology 21, 301-304 (1981).

[5] = 5HT2C, [3H]-5-HT, Method II, read-out: pki, test method b (converted)
[6] = 5HT2C, 3H-mesulergine, Method I, read-out: IC50, test method b

Row | SMILES | IC50 (5HT1A receptor) [nM] | IC50 (5HT2C receptor [3]) [nM] | IC50 (5HT2A receptor [4]) [nM] | other results
1 | CC(N)Cn1ccc2c1-c1cccc(Cl)c1C2 (racemic) [Example 37, (RS)-2-(5-chloro-1,4-dihydro-indeno[1,2-b]pyrrol-1-yl)-1-methyl-ethylaminefumarate (1:0.5)] | – | – | – | Ki (human-5HT1A receptors): 4790 nM; Ki (5HT2A receptor [1]): 309 nM; Ki (5HT2C receptor [2]; [5]): 35.5 nM
2 | COc1ccc2c(c1)-c1c(ccn1C[C@@H](C)N)CC2 [Example 30, (R)-2-(4,5-dihydro-8-methoxy-1H-benz[g]indol-1-yl)-1-methyl-ethylamine fumarate (1:1)] | 298 | 58.1 | 479 | –
3 | COc1ccc2ccc3ccn(C[C@@H](C)N)c3c2c1 [Example 31, (R)-2-(8-methoxy-1H-benz[g]indol-1-yl)-1-methyl-ethylamine fumarate (1:0.5)] | 337 | 28.1 | 874 | –
4 | Cc1nc2sccn2c(=O)c1CCN1CCC(=C(c2ccc(F)cc2)c2ccc(F)cc2)CC1 [Ritanserine, reference compound] | – | 37 | – | –
5 | Cc1nc2ccccn2c(=O)c1CCN1CCC(C(=O)c2ccc(F)cc2)CC1 [Pirenperone, reference compound] | 2880 | 37 | 2.9 | –
6 | CC(N)Cn1ccc2c1-c1ccccc1SC2 (racemic) [Example 64] | 384 | – | 773 | IC50 (5HT2C receptor [3]; [6]): 85.4 nM
7 | COc1ccc2c(c1)Cc1ccn(CC(C)N)c1-2 (racemic) [Example 55, (RS)-2-(6-methoxy-1,4-dihydro-indeno[1,2-b]pyrrol-1-yl)-1-methyl-ethylamine fumarate (1:0.5)] | 1260 | 371 | 8350 | –
8 | CN1C[C@H](CNC(=O)OCc2ccccc2)C[C@@H]2c3cccc4c3c(cn4C)C[C@H]21 [Metergoline, reference compound] | – | 5.5 | – | –
9 | COc1ccc2c(c1)-c1c(ccn1C(C)(C)N)CO2 [Example 54, (RS)1-(8-methoxy-1,4-dihydro[1]benzopyrano[4,3b]pyrrol1-yl)-1-methyl-ethylamine] | 825 | – | – | IC50 (5HT2C receptor [3]; [6]): 116 nM; IC50 (5HT2A receptor [4]; 5HT2A, 3H-ketanserine, Method I, read-out: IC50, test method c): 2590 nM
10 | COc1ccc2c(c1)-c1c(ccn1CCN)C2 [Example 23, 2-(7-methoxy-1,4-dihydro-indeno[1,2-b]pyrrol-1-yl)-ethylamine fumarate (1:1)] | 347 | 45.2 | 3340 | –
11 | C[C@H](N)Cn1ccc2c1-c1cc(F)ccc1C2(C)C [Example 9, (S)-2-(7-fluoro-4,4-dimethyl-1,4-dihydro-indeno[1,2-b]pyrrol-1-yl)-1-methyl-ethylamine fumarate (1:1)] | – | – | – | Ki (human-5HT1A receptors): 2750 nM; Ki (5HT2A receptor [1]): 34.7 nM; Ki (5HT2C receptor [2]): 5.13 nM
12 | CCc1ccc2c(c1)-c1c(ccn1C[C@H](C)N)C2(C)C [Example 8, (S)-2-(7-ethyl-4,4-dimethyl-1,4-dihydro-indeno[1,2-b]pyrrol-1-yl)-1-methyl-ethylamine fumarate (1:1)] | – | – | – | Ki (human-5HT1A receptors): 4570 nM; Ki (5HT2A receptor [1]): 66.1 nM; Ki (5HT2C receptor [2]; [5]): 2.34 nM
13 | COc1ccc2c(c1)-c1c(ccn1C[C@@H](C)N)C2 [Example 28, (R)-2-(7-methoxy-1,4-dihydro-indeno[1,2-b]pyrrol-1-yl)-1-methyl-ethylaminefumarate (1:0.5)] | 1070 | 78.7 | 1630 | –
14 | COc1ccc2c(c1)-c1c(ccn1CC(C)N)C2 (racemic) [Example 22, (RS)-2-(7-methoxy-1,4-dihydro-indeno[1,2-b]pyrrol-1-yl)-1-methyl-ethylamine fumarate (1:0.5)] | 1590 | 30.4 | 1400 | –
15 | CC(N)Cn1ccc2c1-c1cc(Cl)ccc1C2 (racemic) [Example 21, (RS)-2-(7-chloro-1,4-dihydro-indeno[1,2-b]pyrrol-1-yl)-1-methyl-ethylaminefumarate (1:0.5)] | 1350 | 56.6 | 2540 | –
16 | COc1ccc2[nH]cc(C3=CCNCC3)c2c1 [RU 24969, reference compound] | 8 | – | – | –
17 | CC(N)Cn1ccc2c1-c1ccc(Cl)cc1C2 (racemic) [Example 53, (RS)-2-(6-chloro-1,4-dihydro-indeno[1,2-b]pyrrol-1-yl)-1-methyl-ethylaminefumarate (1:0.5)] | 1100 | 308 | 11300 | –
18 | O=c1ccc2[nH]cc(C3=CCNCC3)c2[nH]1 [CP 93129, reference compound] | 1620 | – | 29200 | –
19 | COc1cccc2c1-c1c(ccn1CC(C)N)C2 (racemic) [Example 67, (RS)-2-(8-methoxy-1,4-dihydro-indeno[1,2-b]pyrrol-1-yl)-1-methyl-ethylamine fumarate (1:0.5)] | 1750 | 146 | 1070 | –
20 | COc1ccc2ccc3ccn(CCN)c3c2c1 [Example 32, 2-(8-methoxy-1H-benz[g]indol-1-yl)-ethylamine fumarate (1:1)] | 139 | 18 | 1670 | –
21 | CC(N)Cn1ccc2c1-c1ccccc1OC2 (racemic) [Example 34, (RS)-1-(1,4-dihydro-[1]benzopyrano-[4,3-b]pyrrol-1-yl)-1-methyl-ethylaminefumarate (1:0.5)] | 1620 | – | 2640 | IC50 (5HT2C receptor [3]; [6]): 107 nM
22 | Clc1cccc(N2CCNCC2)c1 [mCPP, reference compound] | 227 | – | 319 | IC50 (5HT2C receptor [3]; [6]): 53 nM
23 | COc1ccc2c(c1)-c1c(ccn1CCN)CC2 [Example 59, 2-(4,5-dihydro-8-methoxy-1H-benz[g]indol-1-yl)-ethylamine fumarate (1:1)] | 97 | 23.8 | 1510 | –
24 | CC(N)Cn1ccc2c1-c1ccccc1C2c1ccccc1 (racemic) [Example 69, (2RS/4RS)-2-(4-phenyl-1,4-dihydro-indeno[1,2-b]pyrrol-1-yl)-1-methyl-ethylamine fumarate (1:0.86)] | 3460 | 143 | 854 | –
25 | COc1ccccc1N1CCN(CCCCN2C(=O)c3ccccc3C2=O)CC1 [NAN-190, reference compound] | 0.56 | 1800 | 581 | –
26 | COc1ccc2ccc3ccn(C[C@H](C)N)c3c2c1 [Example 7, (S)-2-(8-methoxy-1H-benz[g]indol-1-yl)-1-methyl-ethylamine fumarate (1:0.5)] | 2160 | 24 | 1200 | –
